Test [1] deals with microorganisms. Briefly: Morphology, biofilm and growth disrupting peptides (Table 5). Type of test: cell-based. Set-up: key: A: Peptide aggregates; B: Less hyphal formation; Clumps; Diffuse clumps and small polyps; F: Diffuse growth; H: Thin; I: Growth inhibition; Microcolony formation; Rippled; Small polyps; Thick; W: Halo formation on top, microlonies on bottom. The source says: In certain embodiments peptides that induce alterations in phenotype or other biological activities can also be used as antimicrobial effector moieties.

Test [2] concerns microorganisms. The test can be described thus: Peptide activities: targeting/binding, antimicrobial, growth or phenotype altering (Tables 7, 8). The class given is cell-based. Conditions: peptides having multiple activities.
The subject of test [3] is microorganisms. The test can be described thus: Targeting peptide binding to target microorganisms (Tables 3, 10, 12). Conditions: microorganism(s) the targeting peptide binds; binding in aqueous buffers varied with peptide solubility, preferably 1x PBS.

Entries after “also recorded” stand apart in the source; their conditions may differ.

Take “PF-428: peptide having multiple activities (chain 1 ENEESIF; chain 2 ENEESIF; Peptide with targeting and/or antimicrobial activity)”: the “Organism, effect” value in test [1] (S. pneumoniae) is “S. pneumoniae (H)”. Also, the Activities entry in test [2] is “G B”. For the same substance, in test [3], the “Target(s)” value is given as “S. epidermidis; also recorded: C. albicans; also recorded: E. faecalis; also recorded: C. jeikeium”.
Regarding “PF-429: peptide having multiple activities (chain 1 AATLICVGSGIMSSL; chain 2 AATLICVGSGIMSSL; Peptide with targeting and/or antimicrobial activity)”, the “Organism, effect” value in test [1] (E. faecalis) is “E. faecalis (C)”; in test [1] (MRSA), “MRSA (C)”; in test [1] (S. epidermidis) it was “S. epidermidis (C)”; in test [1] (S. pneumoniae), “S. pneumoniae (M)”. In addition, the Activities result in test [2] is reported as “G B”. Further, the “Target(s)” value in test [3] is given as “S. epidermidis; also recorded: S. pneumoniae; also recorded: C. jeikeium”.
For “PF-430: peptide having multiple activities (chain 1 AVVCGYLAYTATS; chain 2 AVVCGYLAYTATS; Peptide with targeting and/or antimicrobial activity)”, the “Organism, effect” value is given as “MRSA (M)” in test [1] (MRSA), “S. epidermidis (M)” in test [1] (S. epidermidis) and “S. pneumoniae (M)” in test [1] (S. pneumoniae). In addition, the Activities entry in test [2] is listed as “G B”. Further, the “Target(s)” value in test [3] is given as “S. epidermidis; also recorded: M. luteus; also recorded: E. coli; also recorded: S. pneumoniae; also recorded: E. faecalis; also recorded: C. jeikeium; also recorded: C. jejuni”.
For the substance “PF-433: peptide having multiple activities (chain 1 MRKEFHNVLSSGQLLADKRPARDYNRK; chain 2 MRKEFHNVLSSGQLLADKRPARDYNRK; Peptide with targeting and/or antimicrobial activity)”, in test [1] (S. pneumoniae), the “Organism, effect” value is on record as “S. pneumoniae (H)”. The Activities entry in test [2] was “G B”. Moreover, in test [3], the “Target(s)” value was “S. epidermidis; also recorded: E. coli; also recorded: S. pneumoniae; also recorded: C. jeikeium”.
In the same order, the values of “PF-434: peptide having multiple activities (chain 1 GQLLADKRPARDYNRK; chain 2 GQLLADKRPARDYNRK; Peptide with targeting and/or antimicrobial activity)” are “S. pneumoniae (S)”, “G B” and “S. epidermidis; also recorded: M. luteus; also recorded: S. pneumoniae; also recorded: C. jeikeium”.
For “PF-444: peptide having multiple activities (MAAKLWEEGKMVYASSASMTKRLKLAMSKV; Peptide with targeting and/or antimicrobial activity)”, the “Organism, effect” value in test [1] (E. coli) is “E. coli (R)”; in test [1] (E. faecalis), “E. faecalis (C)”; in test [1] (MRSA), “MRSA (C)”; in test [1] (S. epidermidis) it was “S. epidermidis (C)”; in test [1] (S. pneumoniae) it was “S. pneumoniae (R)”. Besides, the Activities result in test [2] is reported as “G B”. For the same substance, the “Target(s)” value in test [3] was “M. luteus; also recorded: C. albicans; also recorded: S. pneumoniae; also recorded: C. jeikeium”.
“PF-445: peptide having multiple activities (ASMTKRLKLAMSKV; Peptide with targeting and/or antimicrobial activity)”: the “Organism, effect” value in test [1] (S. pneumoniae) is on record as “S. pneumoniae (M)”. Also, in test [2], the Activities entry is “G B”. The “Target(s)” value in test [3] is “M. luteus; also recorded: S. pneumoniae; also recorded: C. jeikeium”.
As for “PF-446: peptide having multiple activities (SGNEKV; Peptide with targeting and/or antimicrobial activity)”, the “Organism, effect” value in test [1] (S. pneumoniae) is “S. pneumoniae (H)”. Further, in test [2], the Activities entry is given as “G B”. In test [3], the “Target(s)” value is “M. luteus; also recorded: C. jeikeium”.

(Values after US20110039763A1, “TARGETED ANTIMICROBIAL MOIETIES” (C3 JIAN, INC., priority 2009, published 2011).)
